The text below walks through data of PubChem BioAssay AID858 (Vanderbilt High Throughput Screening Facility, 2007).

pEC50: −log10 of the molar value. Active and inactive are the calls of the source.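 How the source made its calls: active means at least two of three replicate dose series yielding a converging curve fit, whether well or thinly supported; inactive means the rest.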

The target in the test is D(1A) dopamine receptor (Homo sapiens) (UniProt P21728). The test can be described thus: concentration-dependent D1 reporter signal change – cell-based, CRE-luciferase, HEK293, dopamine EC30, D1 allosteric modulator project, dose response (AID 858).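 Further: HEK 293 cells bearing human D1 receptor stimulated by dopamine at its EC30; luciferase light from a cAMP response element reporter gene.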
Sequence of D(1A) dopamine receptor (Homo sapiens) (P21728 whole entry, looked up): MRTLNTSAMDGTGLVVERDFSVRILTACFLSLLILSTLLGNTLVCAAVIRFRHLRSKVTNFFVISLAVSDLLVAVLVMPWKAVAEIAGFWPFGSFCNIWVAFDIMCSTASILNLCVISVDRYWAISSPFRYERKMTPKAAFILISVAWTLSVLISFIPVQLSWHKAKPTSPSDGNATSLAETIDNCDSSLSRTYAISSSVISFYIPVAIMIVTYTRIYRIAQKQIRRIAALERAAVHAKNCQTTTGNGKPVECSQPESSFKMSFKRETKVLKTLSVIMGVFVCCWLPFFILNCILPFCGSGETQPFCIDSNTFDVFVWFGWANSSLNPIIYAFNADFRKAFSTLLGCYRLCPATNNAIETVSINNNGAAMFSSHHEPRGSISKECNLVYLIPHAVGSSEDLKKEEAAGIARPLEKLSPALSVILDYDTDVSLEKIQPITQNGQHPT
For the compound `Cc1sc2ncnc(SCC(=O)N3CCCC3)c2c1C`, the outcome was inactive. As for `CNc1nc(C)c(C(=O)OCC(=O)OC)s1`, the outcome was inactive. On to `CCCCCn1c(N)c(C#N)c2nc3ccccc3nc21`, for which the outcome was inactive.

`CCn1c(SCC(=O)Nc2cc(C)on2)nc2c(c1=O)SC(C)C2` (stereo not drawn): the result was inactive. As for `CCn1cc(C(=O)NCC2COc3ccccc3O2)c2cc(OC)c(OC)cc2c1=O` (stereo not drawn), the result was inactive. Consider `CCCCn1c(=O)c(C(=O)Nc2cnccn2)c(O)c2ccccc21`, for which the outcome was inactive.

Regarding `N#CCSc1nc2c(sc(=S)n2Cc2ccco2)c(=O)n1-c1ccc(F)cc1`, the result was inactive. For the compound `Cc1cc(-n2nc(C)cc2C)nc(NS(=O)(=O)c2ccccc2)n1`, the result was inactive. `O=c1cc(-c2ccccc2)c2c([nH]1)CCCC2`: the result was inactive. For the compound `O=c1n(Cc2ccccc2)c2cc(Cl)cnc2n1Cc1ccccc1`, the outcome was inactive.

With `Cc1ccc(CCNS(=O)(=O)c2cnc[nH]2)cc1`, the result was inactive.

Take `COc1ccc(NC(=O)c2ccc(NS(=O)(=O)c3c(C)noc3C)cc2)cc1OC`: the result was inactive.

As to `CCOC(=O)c1c(NC(=O)c2cccs2)sc(C)c1CC`, the outcome was inactive. On the same count and under the same terms, as for `CCCc1nc(N2CCOCC2)c(C#N)c2c1CCCC2`, the entry is “inactive”. A word on the pEC50: it is the EC50 on a negative log10 scale, so that one unit is a factor of ten. As to `CCCC(=O)Nc1ccc(NC(=O)C2CC2)cn1`, the pEC50 is 7.65. With `COC(=O)c1ccc(C(=O)OC)c(NC(=O)COC(=O)C23CC4CC(CC(O)(C4)C2)C3)c1`, the result was inactive.

`Cc1cc(C)nc(SCC(=O)N2CCCCC2)n1`: the outcome was inactive.

On to `CCOC(=O)N1CCC(NC(=O)c2cccc3c2C(=O)N(Cc2cccnc2)C3)CC1`, for which the result was inactive. For the compound `O=S(=O)(c1ccccc1)c1nc(-c2ccco2)oc1N1CCCCCC1`, the result was inactive. On to `CNc1nc(C)c(C#N)c(-c2ccccc2)c1C(C)=O`, for which the pEC50 is 5.63. As to `Cc1ccc(Oc2ccccc2)c(NC=O)c1`, the outcome was inactive.

Turning to `COc1ccc(S(=O)(=O)Nc2ccc3c(c2)OCO3)cc1OC`, the outcome was inactive. Consider `CC1(C)Cc2c(C#N)c(NC3CCCCC3)nc(-c3ccco3)c2CO1`, for which the pEC50 is 5.59. On to `COc1ccc(Cn2nnc3c(=O)[nH]c(C4CCCN(C(=O)c5ccccc5)C4)nc32)cc1` (stereo not drawn), for which the outcome was inactive. The same measure, in the same setting: under `CC(C)OC(=O)CSc1nnc(-c2cnccn2)n1-c1ccc(Cl)cc1` stands “inactive”.

With `COc1cccc(-c2nnc(SCC(=O)Nc3cc(C)on3)o2)c1`, the outcome was inactive. On the same count and under the same terms, under `Cc1cc(O)c(C=Nc2cccc(Cl)c2)c(=O)o1` stands “inactive”; under `COc1ccc(CCNS(=O)(=O)c2ccc3c(c2)OCCO3)cc1OC`, “inactive”; under `Cc1ccc(-c2cc(-c3ccc(C)o3)nc(N)c2C#N)cc1`, “inactive”.

Consider `CCN1C(=O)c2cccc3c(S(=O)(=O)Nc4ccccn4)ccc1c23`, for which the outcome was inactive.

Consider `COCCCNc1c2c3c(cccc3[nH]c1=O)C(=O)c1ccccc1-2`, for which the result was inactive. For the compound `C=C(C)CSc1nc2c(cc1C#N)CCC2`, the result was inactive. As for `COc1ccc2nc(SCC(=O)N3CCCCCC3)c(C#N)cc2c1`, the result was inactive. On to `COc1ccc(-c2noc(COc3ccc4ccccc4c3Br)n2)cc1OC`, for which the outcome was inactive. `Cc1cc2cc(CN(CCN3CCOCC3)C(=O)Nc3ccccc3F)c(=O)[nH]c2cc1C`: the outcome was inactive. Take `Cn1cccc1C1NC(=O)c2c(sc3c2CCC(C(C)(C)C)C3)N1` (stereo not drawn): the outcome was inactive. For `CCOC(=O)c1nn(-c2ccccc2C)c(=O)c(C#N)c1C`, the result was inactive.

As to `Cc1cc(C)n(CC(=O)n2c3c(c4ccccc42)CCCC3)n1`, the result was inactive.

In the case of `Cc1cccc(Cc2c(C)nc3c(C(=O)NCc4ccco4)cnn3c2C)c1`, the result was inactive. Same read-out and setting: under `COc1cc(OC)cc(C(=O)Nn2cc(C(=O)N3CCN(C)CC3)c3ccccc3c2=O)c1` stands “inactive”. For the compound `N#Cc1c(N)nc(-c2ccccc2)nc1-c1ccccc1`, the pEC50 was 5.93.

For the compound `CCOc1ccccc1NC(=O)CN(C)S(=O)(=O)c1cccc2nsnc12`, the result was inactive.

Regarding `CCC(=O)n1nc(-c2cccnc2)nc1NCc1ccc(OC)cc1`, the result was inactive.

`COc1ccc(-n2nc3ccccc3n2)cc1`: the result was inactive. `Cc1cc(=O)c2n(Cc3ccc(Cl)cc3)nc[n+]2[nH]1`: the result was inactive. For the compound `CCc1nn(CCCC(=O)N2CCc3ccccc3C2)c(=O)c2cc3occc3n12`, the result was inactive.

For `C=CCNc1sc(C(=O)C(C)(C)C)c(N)c1C#N`, the pEC50 is 5.94. Take `O=C1COc2ccc(C(=O)c3ccccc3)cc2CN1`: the result was inactive.

For the compound `CCOC(=O)CCSc1nc(C)c2ccccc2n1`, the result was inactive. `Cc1cc(Br)c2c(c1)=C(c1sc(N3CCCCCC3)nc1O)C(=O)N=2`: the pEC50 was 5.87.

On to `Clc1ccccc1Cn1nnc2c(N3CCCC3)ncnc21`, for which the outcome was inactive. On the same count and under the same terms, under `COc1ccc(C2CC(c3cc(OC)ccc3OC)n3nnnc3N2)cc1` (stereo not drawn) stands “inactive”; under `CCOC(=O)c1c(C)c(C(=O)NCc2ccc3c(c2)OCO3)c(C)n1C`, “inactive”; under `N#Cc1c2c(nc(N)c1-c1ccccc1)CCCCC2`, “inactive”.

For `CC1(C)CC(=O)C2=C(C1)OC(N)=C(C#N)C2c1cccc(OC(=O)c2ccco2)c1` (stereo not drawn), the result was inactive. Take `CCCCNC(=O)Nc1ccc(Br)cn1`: the pEC50 is 5.61. Turning to `CC(C)OC(=O)CSc1nnc(-c2cnccn2)n1-c1ccccc1`, the result was inactive. Take `CC(C)Cn1c(=O)c2c(c3ccccc31)OC(C)C(=O)N2` (stereo not drawn): the outcome was inactive.

For the compound `COCCNc1oc(-c2ccc(C)cc2)nc1C#N`, the result was inactive.

Take `Cc1ccc2c(c1)-c1c(ssc1=S)C(C)(C)N2C(=O)CSc1nncn1C`: the outcome was inactive. As to `Cc1noc(C)c1S(=O)(=O)N1CCCC(C(=O)NCc2ccccn2)C1` (stereo not drawn), the result was inactive. Take `Cc1cc(C)nc(SCC(=O)Nc2ncc3c(n2)CC(C)(C)CC3=O)n1`: the outcome was inactive. In the case of `c1ccc(C2=Nn3c(nnc3-c3ccncc3)SC2)cc1`, the result was inactive. `COC(=O)c1ccc(OCCn2cnc3ccccc3c2=O)cc1`: the outcome was inactive. Still for that read-out and setting: under `C/C(CCc1oc2ccccc2c1-c1ccc(C)o1)=N/O` stands “inactive”. With `C=CCn1c2ccccc2c2nnc(SCC(=O)NC(C(=O)OC)C(C)C)nc21` (stereo not drawn), the outcome was inactive.

In the case of `CCn1c(SCc2cccnc2)nc2c1c(=O)n(C)c(=O)n2C`, the outcome was inactive. `CC(C)Cn1c(=O)c(C(=O)Nc2cnccn2)c(O)c2ccccc21`: the outcome was inactive. Regarding `Nc1nonc1-n1nnc(C(=O)c2ccccc2)c1-c1ccccc1`, the outcome was inactive. Turning to `CCCCn1c(=NC(=O)c2ccco2)c(C(=O)OCC)cc2c(=O)n3ccccc3nc21`, the result was inactive. As for `COc1ccccc1NC(=O)CC1Nc2ccccc2NC1=O` (stereo not drawn), the result was inactive. With `CCCCNC(=O)c1cc(-c2ccc(OC)c(OC)c2)on1`, the result was inactive. With `CC1=CC(C)(C)N=C(NC#N)N1`, the result was inactive. In the case of `C=CCNC(=O)C1CC(c2cccc(OC)c2)=NO1` (stereo not drawn), the outcome was inactive. As to `O=C(NCc1cccs1)C1CC(c2ccccc2O)=NO1` (stereo not drawn), the outcome was inactive. Consider `Nc1nc2n(n1)C(c1ccco1)CC(c1ccc(F)cc1)N2` (stereo not drawn), for which the result was inactive. For `CC(=O)N1CCC2(CC1)C(C#N)=C(N)Oc1c2sc2nc(C)cc(C)c12`, the outcome was inactive. As to `O=C(c1ccco1)N1CCN(S(=O)(=O)c2ccc3c(c2)CCN3C(=O)C2CC2)CC1`, the outcome was inactive.

Consider `COc1cccc(NC2=NCC(=O)N2Cc2cccs2)c1`, for which the result was inactive. Take `Cc1sc2nc(C3CC3)nc(NCCNS(C)(=O)=O)c2c1C`: the result was inactive. Take `Cn1c(SCc2ccon2)nc2ccccc2c1=O`: the outcome was inactive.

`CCC(C)Sc1nc2c(c(=O)n1C)SC(C)C2` (stereo not drawn): the result was inactive. Consider `CCC(Sc1nc(=O)cc(N)n1CCc1ccccc1)C(=O)Nc1ccccc1C#N` (stereo not drawn), for which the result was inactive. Regarding `CCOC(=O)CN(C(=O)CSc1nnc(-c2ccc(OC)c(OC)c2)o1)c1ccc(F)cc1`, the result was inactive. `N#Cc1nc(-c2ccccc2Cl)oc1N1CCOCC1`: the outcome was inactive.

As for `CCCn1c(=NC(C)=O)c(C(=O)OCC)cc2c(=O)n3ccccc3nc21`, the outcome was inactive. For the compound `CCCCn1c2nc3ccccc3nc2c2c(=O)n(C(C)CC)cnc21` (stereo not drawn), the result was inactive. Turning to `COc1ccccc1NC(=O)N(Cc1ccc2c(c1)OCO2)Cc1nc2ccccc2c(=O)[nH]1`, the outcome was inactive. For `CCCn1c2c(c(O)c(C(=O)NC)c1=O)CCCC2`, the result was inactive. Turning to `COC(=O)c1ccc(COc2nc(C)cc(C)c2C#N)o1`, the result was inactive. With `CCOC(=O)c1cc2c(=O)n3ccccc3nc2n(CCCOC)c1=NC(=O)C(C)(C)C`, the outcome was inactive. For `CCCc1cc(=O)[nH]c(NCc2ccc(Cl)cc2)n1`, the outcome was inactive. On to `COc1ncnc2c1N[C@@](C)(O)c1c(F)c(F)c(F)c(F)c1S2`, for which the result was inactive. As for `Cc1nc(-c2ccc(S(=O)(=O)N3CCCCCC3)cc2)cs1`, the result was inactive.

`O=C(NCc1ccco1)c1cnn2c(C(F)(F)F)cc(-c3ccco3)nc12`: the result was inactive. The same measure, in the same setting: under `Cc1onc(-c2ccccc2)c1C(=O)Nc1ccc2c(c1)OCO2` stands “inactive”.

Consider `CCOC(=O)c1c(C)oc2c1c(C=NCc1ccccn1)c(O)c1ccccc12`, for which the outcome was inactive. Still for that read-out and setting: under `COC(=O)Nc1ccc2c(c1)N(C(=O)CCN1CCOCC1)c1ccccc1S2` stands “inactive”.
